Data from the NIST ThermoML archive (doi:10.1021/je900124n).
“And” between values parts separate entries of the source, which are not always exact repeats. Equal values may be shown once.

Settings: Fluid (supercritical or subcritical phases), Buoyancy - hydrostatic balance with magnetic suspension - two sinkers

CCC [propane]
Settings	mass density
460 K, 1046.1 kPa	12.5822 kg/m3
460 K, 1046.4 kPa	12.585 kg/m3
460 K, 1046.5 kPa	12.5879 kg/m3
460 K, 1830.3 kPa	22.7747 kg/m3
460 K, 1830.7 kPa	22.7788 kg/m3 and 22.7791 kg/m3
460 K, 1830.9 kPa	22.7814 kg/m3
460 K, 2892.4 kPa	37.7704 kg/m3 and 37.7706 kg/m3
460 K, 2892.5 kPa	37.7721 kg/m3 and 37.7722 kg/m3
460 K, 2892.6 kPa	37.7743 kg/m3
460 K, 4123 kPa	57.2169 kg/m3
460 K, 4123.1 kPa	57.2175 kg/m3
460 K, 4123.4 kPa	57.2232 kg/m3
460 K, 4123.6 kPa	57.2271 kg/m3
460 K, 4123.8 kPa	57.2284 kg/m3
460 K, 4978.5 kPa	72.26 kg/m3
460 K, 4978.6 kPa	72.2622 kg/m3
460 K, 6345.6 kPa	99.2922 kg/m3 [middle of 4 runs]
460 K, 8445 kPa	147.718 kg/m3 and 147.719 kg/m3 and 147.717 kg/m3
460 K, 8445.1 kPa	147.721 kg/m3
460 K, 8731.7 kPa	154.767 kg/m3
460 K, 8731.9 kPa	154.768 kg/m3
460 K, 8732 kPa	154.77 kg/m3 and 154.768 kg/m3
460 K, 11420 kPa	218.352 kg/m3 [middle of 8 runs]
460.01 K, 687.74 kPa	8.1493 kg/m3
460.01 K, 687.75 kPa	8.1496 kg/m3 and 8.1495 kg/m3
460.01 K, 1046.4 kPa	12.5877 kg/m3
460.01 K, 1046.6 kPa	12.591 kg/m3
460.01 K, 4978.7 kPa	72.2625 kg/m3
460.01 K, 4978.8 kPa	72.2648 kg/m3
460.01 K, 4978.9 kPa	72.2665 kg/m3 [middle of 4 runs]
460.01 K, 8434.9 kPa	147.459 kg/m3
460.01 K, 8435 kPa	147.46 kg/m3
460.01 K, 8435.1 kPa	147.462 kg/m3 and 147.464 kg/m3 and 147.461 kg/m3
460.01 K, 8435.2 kPa	147.464 kg/m3 and 147.463 kg/m3 and 147.466 kg/m3
480 K, 716.12 kPa	8.1077 kg/m3
480 K, 716.13 kPa	8.1078 kg/m3 and 8.1079 kg/m3 and 8.108 kg/m3
480 K, 1038.1 kPa	11.8882 kg/m3
480 K, 1924.9 kPa	22.769 kg/m3 and 22.7696 kg/m3
480 K, 1925 kPa	22.771 kg/m3
480 K, 1925.1 kPa	22.7716 kg/m3 and 22.7708 kg/m3
480 K, 3069 kPa	37.9021 kg/m3
480 K, 3069.2 kPa	37.9044 kg/m3 and 37.905 kg/m3
480 K, 3069.5 kPa	37.9086 kg/m3
480 K, 3069.6 kPa	37.9115 kg/m3
480 K, 4376.6 kPa	56.9392 kg/m3
480 K, 4376.8 kPa	56.9424 kg/m3
480 K, 4377.1 kPa	56.9487 kg/m3
480 K, 4377.2 kPa	56.9487 kg/m3
480 K, 4377.6 kPa	56.955 kg/m3
480 K, 5340.5 kPa	72.2831 kg/m3 and 72.2827 kg/m3
480 K, 5340.6 kPa	72.285 kg/m3
480 K, 6880.9 kPa	99.2607 kg/m3 and 99.2626 kg/m3
480 K, 6881 kPa	99.2628 kg/m3
480 K, 9330.8 kPa	147.276 kg/m3 and 147.278 kg/m3
480 K, 9330.9 kPa	147.278 kg/m3 and 147.275 kg/m3
480 K, 9331 kPa	147.279 kg/m3
480 K, 9343.8 kPa	147.548 kg/m3
480 K, 9343.9 kPa	147.549 kg/m3 and 147.552 kg/m3
480 K, 9344 kPa	147.551 kg/m3
480 K, 9344.1 kPa	147.55 kg/m3
480 K, 9689.8 kPa	154.575 kg/m3
480 K, 9690 kPa	154.576 kg/m3
480 K, 9690.1 kPa	154.579 kg/m3
480 K, 9690.2 kPa	154.581 kg/m3 and 154.58 kg/m3
480 K, 13007 kPa	218.012 kg/m3 and 218.013 kg/m3 and 218.014 kg/m3
480.01 K, 399.65 kPa	4.4746 kg/m3 and 4.4747 kg/m3 and 4.4744 kg/m3
480.01 K, 1038.8 kPa	11.899 kg/m3
480.01 K, 1039.1 kPa	11.9024 kg/m3
480.01 K, 1039.3 kPa	11.9056 kg/m3
480.01 K, 1041.9 kPa	11.9354 kg/m3
480.01 K, 5340.5 kPa	72.2834 kg/m3 and 72.2836 kg/m3
480.01 K, 5340.6 kPa	72.2841 kg/m3 and 72.2848 kg/m3 and 72.2843 kg/m3
480.01 K, 6880.9 kPa	99.2609 kg/m3 and 99.2601 kg/m3
480.01 K, 9330.9 kPa	147.277 kg/m3
480.01 K, 9331 kPa	147.28 kg/m3 and 147.281 kg/m3
480.01 K, 13007 kPa	218.014 kg/m3
480.01 K, 13008 kPa	218.016 kg/m3
500 K, 415.04 kPa	4.4539 kg/m3 and 4.454 kg/m3
500 K, 415.05 kPa	4.454 kg/m3
500 K, 744.3 kPa	8.0688 kg/m3
500 K, 744.34 kPa	8.0689 kg/m3
500 K, 1058.4 kPa	11.5875 kg/m3 and 11.5868 kg/m3
500 K, 2016.7 kPa	22.7375 kg/m3
500 K, 2016.8 kPa	22.7381 kg/m3
500 K, 2016.9 kPa	22.7385 kg/m3
500 K, 2017 kPa	22.7394 kg/m3
500 K, 3242.8 kPa	37.9947 kg/m3
500 K, 3243.6 kPa	38.0051 kg/m3
500 K, 3243.7 kPa	38.0059 kg/m3 and 38.0062 kg/m3
500 K, 3243.9 kPa	38.0086 kg/m3
500 K, 4643.7 kPa	56.9284 kg/m3
500 K, 4644 kPa	56.9317 kg/m3
500 K, 4644.4 kPa	56.9376 kg/m3
500 K, 4644.5 kPa	56.9398 kg/m3
500 K, 4644.6 kPa	56.941 kg/m3
500 K, 7408.7 kPa	99.2014 kg/m3 and 99.1992 kg/m3
500 K, 7408.8 kPa	99.1996 kg/m3 and 99.1999 kg/m3
500 K, 10218 kPa	147.109 kg/m3 and 147.114 kg/m3
500 K, 10219 kPa	147.115 kg/m3
500 K, 10234 kPa	147.392 kg/m3 and 147.391 kg/m3 and 147.393 kg/m3
500 K, 10637 kPa	154.378 kg/m3 [middle of 5 runs]
500 K, 14582 kPa	217.649 kg/m3 and 217.645 kg/m3 and 217.644 kg/m3
500 K, 14583 kPa	217.649 kg/m3
500.01 K, 415.04 kPa	4.4539 kg/m3
500.01 K, 744.34 kPa	8.069 kg/m3
500.01 K, 744.35 kPa	8.069 kg/m3
500.01 K, 1058.3 kPa	11.5848 kg/m3
500.01 K, 1058.7 kPa	11.5888 kg/m3
500.01 K, 1059.3 kPa	11.5965 kg/m3
500.01 K, 5697.7 kPa	72.2794 kg/m3 and 72.2805 kg/m3 and 72.2784 kg/m3
500.01 K, 5697.8 kPa	72.2813 kg/m3 [middle of 4 runs]
500.01 K, 5697.9 kPa	72.2822 kg/m3
500.01 K, 10218 kPa	147.112 kg/m3 and 147.116 kg/m3
500.01 K, 10219 kPa	147.118 kg/m3 and 147.116 kg/m3
500.01 K, 14582 kPa	217.641 kg/m3 and 217.644 kg/m3
500.01 K, 14583 kPa	217.647 kg/m3
